Laboratory results: patent US12202804B2, “In vitro or ex vivo methods for screening a quinoline derivative” (ABIVAX, priority 2014, dated 2025)

Experiments:
[1] = test system: miR-124; assay: Modulation of miR-124 expression in PBMCs (qPCR, relative quantification); format: cell-based, human; conditions: for effect on the overexpression of miR-124 in PBMCs: known antiretrovirals, PBMCs from four donors; for Fold-change compared to DMSO treated cells (Relative quantification) Mean / fold induction at 5 µM / fold induction at 10 µM: miR-124 expression, PBMCs of healthy donors; for Fold-change compared to DMSO treated cells (Relative quantification) Mean / fold induction at 10 µM: antiretroviral drugs 10 μM, extraction day 6, 4 donors; for fold induction at 5 µM / fold induction at 10 µM: Homo sapiens, PBMC, 144 h, read-out: Fold-change compared to DMSO treated cells (Relative quantification) Mean; for fold induction at 5 µM: quinoline derivatives 5 μM, extraction day 6, mean over 1 to 7 donors
Procedure: Briefly, 60-70 mL of buffy-coat are poured in a flask of 175 cm^2, and the volume is adjusted to 300 mL using PBS in order to obtain a dilution of about 5-fold of the buffy coat. […] The lymphocyte ring is recovered from the Falcon™ tube with a transfer pipette (Pastette®) and then washed with PBS using centrifugation for 10 minutes at 290 rcf and at ambient temperature until the supernatant becomes clear.
Cells are incubated for 48 hours at 37° C. under 5% CO2.
Six-well plates are used for the screening. Within each well comprising 3.10^6 cell/4 ml RPMI supplemented with 10% fetal calf serum and 40 U/mL IL-2 (Peprotech Ref 200-02) are added screened molecules. 100% DMSO (4 μL) is added to the well and tested as a negative control.
Each tested condition is set up as described here below and the final corresponding volume is adjusted accordingly in the well: • 1) Quinoline derivatives in 100% DMSO—(5 μM and final volume 4 μL) • 2) Antiretroviral drugs: Maraviroc, Efavirenz, Darunavir, AZT (10 μM for all—final volume 4 μL).
The wells are incubated for three days at 37° C. under 5% CO2 Medium is changed (Day 3) according to standard protocols. Briefly, plates are centrifugated at 290 rcf for 5 minutes and 3 mL of supernatant is removed. 3 mL of RPMI supplemented with 10% fetal calf serum and 40 U/mL IL-2 is then added with 3 μL of a stock solution of screened molecule at 5 mM in 100% DMSO or 3 μL of 100% DMSO as a negative control.
Cells are recovered within Falcon™ tubes of 15 mL, centrifugated at 290 rcf for 5 minutes, and then washed in 10 mL PBS and further centrifugated at 290 rcf for 5 minutes. Cells are then resuspended in 1 mL PBS and counted.
6×10^6 cells are recovered and centrifugated at 290 rcf for 5 minutes.
The miRNA extraction is achieved using the protocol from Macherey Nagel Nucleospin® miRNA extraction kit using an elution volume for RNAs of 50 μL and miRNAs of 30 μL, and further stored at −20° C.
The reverse transcription step is followed for 12 μL of miRNA using the miScript RT II reverse transcription (RT) kit from QIAGEN© using the miScript HiSpec buffer, and further stored at −20° C.
The quantitative PCR step is achieved using the QIAGEN© miScript SYBR® Green PCR kit and miScript Primer Assays according to the manufacturer's protocol.
The reaction is repeated in triplicates in a 384-well plate according to the manufacturer's protocol on a LightCycler® […] Roche Real-Time PCR system. Cycling conditions are also set up according to the manufacturer's protocol: […]

[2] = test system: (DSS-) induced colitis model; assay: Dextran Sulphate Sodium (DSS-) induced colitis mouse model; format: in vivo, C57BL/6 mice
Procedure: A commonly used mouse model of inflammatory bowel disease is the Dextran Sulphate Sodium (DSS-) induced colitis model. Typical histological changes of acute DSS-colitis are mucin depletion, epithelial degeneration and the eventual destruction of the mucosal barrier which leads to inflammation and colitis.
Three groups of 6-week-old C57BL/6 mice (8 mice each) received DSS administration in the drinking water (2.5%) for 9 days (FIGS. 1-2). Weight loss and water consumption was measured every day. The latter was determined by measuring the volume loss of the drinking water in the respective devices. The mice were treated by gavage with 200 ul of 0.5 MC alone (DSS+MC group) or together with 40 mg/kg of compound 24 (DSS+MC+24 group). At the point when control mice have loosed up to 20% of their weight (DSS), the treatment with DSS is stopped and replaced with drinking water. The other treatments were continued for 21 days.
Three groups of 16-week-old C57BL/6 mice (7 mice each) received 2.5% DSS in drinking water (FIG. 3). The mice were treated by gavage with 200 ul of 0.5 MC alone (DSS+MC group) or together with 40 mg/kg of compound 24 (DSS+MC+24 group). The mice were treated with DSS for 6 days and at the point when control mice have loosed up to 15% of their weight (DSS), all the mice were euthanized and colon were taken for further analyses.
Colons were measured using a ruler and for histological analysis the entire colon was prepared according to the Swiss roll procedure (Whittem el al.; “Murine Colitis Modeling using Dextran Sulfate Sodium (DSS)”, J Vis Exp 2010 (35) 1652) fixed with formaldehyde and embedded in paraffin. 4 μm sections were de-paraffinized and stained with hematoxylin and eosin and analyzed for lesion size and other alterations (FIGS. 4-6). We compared untreated and treated mice during the DSS-cycle with quinoline derivatives suspended in methylcellulose or methylcellulose (MC) only. Statistical analysis was performed using Mann-Whitney test, asterisk indicates a significant difference ([…]), two asterisks indicate a very significant difference ([…])

[3] = test system: Collagen induced arthritis model; assay: Collagen induced arthritis mouse model; format: in vivo, DBA/1 mice
Procedure: Groups of 9 to -10-week-old DBA/1 mice were immunized intradermally with bovine collagen type II emulsified in a 1:1 proportion with complete Freund's adjuvant. Mice were challenged 21 days after the first immunization and the phenotypic appearance of arthritis was evaluated by monitoring every second day the thickness of each hind paw ankle joint thickness was measured using a dial caliper (0- to 10-mm) test gauge using a thickness gage. Mice were treated daily for two weeks with quinoline derivatives candidates suspended in methylcellulose or methylcellulose (MC) only and the development of the disease was then monitored. Statistical analysis was performed using Mann-Whitney test, asterisk indicates a significant difference ([…]).

Compound | fold induction at 5 µM [1] | further results
Cc1cn([C@H]2C[C@H](N=[N+]=[N-])[C@@H](CO)O2)c(=O)[nH]c1=O [AZT, reference compound] | – | effect on the overexpression of miR-124 in PBMCs [1]: none of the known antiretroviral (Maraviroc, Effavirenz, Darunavir or AZT) has any significant effect; Fold-change compared to DMSO treated cells (Relative quantification) Mean [1]: 0.90
Cc1ccnc(Nc2ccc3cccc(Cl)c3n2)c1 [Compound 1] | 32 | –
FC(F)(F)c1ccc(Nc2ccc3cccc(Cl)c3n2)nc1 [Compound 2] | 66.7 | –
Fc1ccc(Nc2ccc3cccc(Cl)c3n2)nc1 [Compound 3] | 48.5 | –
Cc1ccnc(Nc2ccc3cccc(Cl)c3n2)c1N [Compound 4] | 24.4 | –
FC(F)(F)c1ccnc(Nc2ccc3c(OCCN4CCOCC4)ccc(Cl)c3n2)c1 [Compound 5] | 26.8 | –
FC(F)(F)c1ccnc(Nc2ccc3c(OCCN4CCCCC4)ccc(Cl)c3n2)c1 [Compound 6] | 30.9 | –
Nc1ccc(Cl)c2nc(Nc3cc(C(F)(F)F)ccn3)ccc12 [Compound 7] | 7.54 | –
FC(F)(F)c1ccnc(Nc2ccc3c(OCCCN4CCCCC4)ccc(Cl)c3n2)c1 [Compound 8, 8-chloro-5-(3-(piperidin-1-yl)propoxy)-N-(4-(trifluoromethyl)pyridin-2-yl)quinolin-2-amine] | 7.97 | –
FC(F)(F)c1ccnc(Nc2cc(NCCCN3CCCCC3)c3cccc(Cl)c3n2)c1 [Compound 9, 8-chloro-N^4-(3-(piperidin-1-yl)propyl)-N^2-(4-(trifluoromethyl)pyridin-2-yl)quinoline-2,4-diamine] | 112 | –
CN(c1cc(C(F)(F)F)ccn1)c1ccc2cccc(Cl)c2n1 [Compound 10, 8-chloro-N-methyl-N-(4-(trifluoromethyl)pyridin-2-yl)quinolin-2-amine] | 21.1 | –
FC(F)(F)c1ccnc(Nc2cc(NCCN3CCOCC3)c3cccc(Cl)c3n2)c1 [Compound 11, 8-chloro-N^4-(2-morpholinoethyl)-N^2-(4-(trifluoromethyl)pyridin-2-yl)quinoline-2,4-diamine] | 17.4 | –
FC(F)(F)c1ccnc(Nc2ccc3cccc(Cl)c3n2)c1 [Compound 12] | 16.3 | –
COc1ccc(Nc2ccc3cccc(Cl)c3n2)cc1 [Compound 23] | 45.1 | –
FC(F)(F)Oc1ccc(Nc2ccc3cccc(Cl)c3n2)cc1 [Compound 24, 8-chloro-N-[4-(trifluoromethoxy)phenyl]quinolin-2-amine] | 32.5 | weight loss in average ([2]; after 5 days of DSS-administration, 40 mg/kg by gavage in MC, MC or untreated mice 10% to 20%): < 1%; alterations in lymphoid organs such as Peyer's Patches ([2]; after two DSS-cycles): decrease of alterations in lymphoid organs such as Peyer's Patches; average size of the lesion area ([2]; colon histology (FIG. 5), versus 8.4 in MC only treated mice): 2.1 mm^2; number of lesions ([2]; colon histology, compared between cohorts (FIG. 4)): comparable number of lesions; water consumption ([2]; drug treated mice, DSS model, 40 mg/kg by gavage): higher water consumption; average size of the lesion area ([2]; mice exposed to two DSS-cycles, vs 12.2 in MC only treated mice): 3.8 mm^2; weight loss during the second administration of DSS ([2]; second cycle of DSS, 40 mg/kg by gavage): significantly control weight loss; swelling of joints ([3]; hind paw ankle joint thickness, MC only treated about 2.2 mm (FIG. 6)): 1.9 mm; mice that displayed signs of inflammation ([3]; treated daily for two weeks, 8 out of 10 MC treated mice developed disease): one out of ten
Nc1cc(OC(F)(F)F)ccc1Nc1ccc2cccc(Cl)c2n1 [Compound 25] | 14.3 | –
Nc1ccc(Cl)c2nc(Nc3ccc(OC(F)(F)F)c(Cl)c3)ccc12 [Compound 26] | 6.13 | –
Cc1cc2c(N)ccc(Cl)c2nc1Nc1ccc(OC(F)(F)F)c(Cl)c1 [Compound 27] | 1.42 | –
CN(c1ccc(OC(F)(F)F)cc1)c1ccc2cccc(Cl)c2n1 [Compound 28, 8-chloro-N-methyl-N-(4-(trifluoromethoxy)phenyl)quinolin-2-amine] | 22.2 | –
FC(F)(F)Oc1ccc(N(CCCN2CCCCC2)c2ccc3cccc(Cl)c3n2)cc1 [Compound 30, 8-chloro-N-(3-(piperidin-1-yl)propyl)-N-(4-(trifluoromethoxy)phenyl)quinolin-2-amine] | 9.88 | –
Clc1cccc2ccc(Nc3cnccn3)nc12 [Compound 45] | 34.2 | –
FC(F)(F)c1ccnc(Oc2ccc3cccc(Cl)c3n2)c1 [Compound 46, 8-chloro-2-((4-(trifluoromethyl)pyridin-2-yl)oxy)quinoline] | 6.23 | –
FC(F)(F)Oc1ccc(Oc2ccc3cccc(Cl)c3n2)cc1 [Compound 48, 8-chloro-2-(4-(trifluoromethoxy)phenoxy)quinoline] | 24 | –
CC(C)CN(C[C@@H](O)[C@H](Cc1ccccc1)NC(=O)O[C@H]1CO[C@H]2OCC[C@H]21)S(=O)(=O)c1ccc(N)cc1 [Darunavir, reference compound] | – | fold induction at 10 µM [1]: 1.08; effect on the overexpression of miR-124 in PBMCs [1]: none of the known antiretroviral (Maraviroc, Effavirenz, Darunavir or AZT) has any significant effect
O=C1Nc2ccc(Cl)cc2[C@@](C#CC2CC2)(C(F)(F)F)O1 [Effavirenz, Efavirenz, reference compound] | – | fold induction at 10 µM [1]: 0.46; effect on the overexpression of miR-124 in PBMCs [1]: none of the known antiretroviral (Maraviroc, Effavirenz, Darunavir or AZT) has any significant effect
Maraviroc [reference compound] | – | effect on the overexpression of miR-124 in PBMCs [1]: none of the known antiretroviral (Maraviroc, Effavirenz, Darunavir or AZT) has any significant effect; Fold-change compared to DMSO treated cells (Relative quantification) Mean [1]: 0.73
